Experiment [1] is described as follows: Kinetics of reduction of PROXYL with ascorbate, followed by EPR. The conditions noted are these: nitroxide reduction with sodium ascorbate (10-fold excess per PROXYL unit), 100 mM PB pH 7.4, 300 K. In kind it is physicochemical. The text has this:
Electronic Paramagnetic Resonance Spectroscopy (EPR) spectra were obtained with an X-Band (9.4 GHz) Bruker ELEXSYS 500 spectrometer equipped with a TE102 microwave cavity, a Bruker variable temperature unit, a field frequency lock system Bruker ER 033 M and equipped with a NMR Gaussmeter Bruker ER 035 M. The modulation amplitude was kept well below the line width, and the microwave power was well below saturation. All samples were previously degassed with Ar. Experiments in aqueous phase were carried out with a quartz flat cell.
Kinetics of reduction of PROXYL with ascorbate. All the solutions were freshly prepared in 100 mM phosphate buffer, pH 7.4. […]
The effect of the dendritic scaffold on nitroxyl rate of reduction was investigated under pseudo-first-order conditions, using a 10-fold excess of sodium ascorbate per PROXYL unit in 100 mM PB pH 7.4 at 300 K. The reduction was monitored by EPR spectroscopy following the decrease of the area under the spectra as a function of time (Figure 4a). As reference, the rate of reduction of 3-carboxy-PROXYL was determined under identical conditions. […] Rate constants were determined by EPR spectroscopy following the decrease of the area under the spectra as a function of time.

Experiment [2] is described as follows: Relaxometric measurements (r1, r2 relaxivity) by MRI at 7 T. Particulars: 100 mM phosphate buffer pH 7.4, 300K. The method, then:
Magnetic Resonance Imaging (MRI) experiments were carried out in a BioSpec 70/30 Bruker system using a 7.0 T horizontal-bore superconducting magnet equipped with actively shielded gradients (B-GA12 gradient coil inserted into a B-GA20S gradient system). A quadrature 72 mm inner diameter volume coil was used for in vitro studies.
Relaxometric measurements. Longitudinal (r1) and transverse (r2) relaxivities were determined per concentration of PROXYL units. […] The software used for the calculations of T1 and T2 relaxations was Paravision 6.0 (Bruker Software). r1 relaxivity. Series of axial T1-weighted (T1W) images were acquired for each concentration of PROXYL to obtain T1 maps based on a magnetization saturation experiment and the following parameters: repetition time (TR) = 70-6000 ms, echo time (TE) = 9.2 ms, field of view (FOV) = 2.5 x 2.5 cm, averages (Av) = 1, acquisition matrix (Mtx) = 128 x 128. The T1 values were calculated from the mean signal in the region of interest (ROI) for each repetition time, adjusted to the equation: S = S0 [1 - […]]. r2 relaxivity. T2 maps were calculated from multi spin echo images with a TR of 2 s. 25 echo images were acquired with a TE of 8.02 ms, which was the interval time between echo images acquisitions, too. […] The T2 values were calculated from mean signal in the ROI for each echo image, adjusted according to the equation: S = S0 […]]. […]

For experiment [3] the following is noted: r.t. 7T, reference value for the clinical Gd contrast agent; cited from earlier work.

Regarding `CC1(C)CC(C(=O)O)C(C)(C)N1[O]` (stereo not shown) [3-carboxy PROXYL, 3-carboxy-PROXYL], in experiment [1], the “Initial stage k (M^-1s^-1) x 10^3” value is 11.2 M^-1s^-1 x 10^3. Moreover, the “r1^7T” value in experiment [2] (longitudinal relaxivity per unit of nitroxyl radical) is 0.20 ± 0.014 mM⁻¹ s⁻¹. The “r2^7T” value in experiment [2] (transverse relaxivity per unit of nitroxyl radical) is 0.23 ± 0.06 mM⁻¹ s⁻¹.

`O=C([O-])CN(CCN(CC(=O)[O-])CC(=O)O)CCN(CC(=O)[O-])CC(=O)O.[Gd+3]` [Gd-DTPA]: the relaxivity in experiment [3] was 3.2 s⁻¹ mM⁻¹.

The values are drawn from patent EP3778613A1, “THIRD GENERATION DENDRIMER, PROCESS FOR PRODUCTION THEREOF AND USE THEREOF” (Consejo Superior de Investigaciones Científicas (CSIC), priority 2019, dated 2021).
